The values below come from ChEMBL document CHEMBL1145498, “A systematic interaction map of validated kinase inhibitors with Ser/Thr kinases” (Proc Natl Acad Sci U S A, 2007).

Assay [1] has as its target Serine/threonine-protein kinase Chk2 (Homo sapiens, UniProt O96017).
The target of assay [2] is Tyrosine-protein kinase JAK1 (Homo sapiens) (UniProt P23458).
Assay [3] concerns the target Mitogen-activated protein kinase 11 (Homo sapiens, UniProt Q15759).
Assay [4] has as its target T1, Serine/threonine-protein kinase Nek2 (Homo sapiens) (UniProt P51955).
T1 sequence (whole entry): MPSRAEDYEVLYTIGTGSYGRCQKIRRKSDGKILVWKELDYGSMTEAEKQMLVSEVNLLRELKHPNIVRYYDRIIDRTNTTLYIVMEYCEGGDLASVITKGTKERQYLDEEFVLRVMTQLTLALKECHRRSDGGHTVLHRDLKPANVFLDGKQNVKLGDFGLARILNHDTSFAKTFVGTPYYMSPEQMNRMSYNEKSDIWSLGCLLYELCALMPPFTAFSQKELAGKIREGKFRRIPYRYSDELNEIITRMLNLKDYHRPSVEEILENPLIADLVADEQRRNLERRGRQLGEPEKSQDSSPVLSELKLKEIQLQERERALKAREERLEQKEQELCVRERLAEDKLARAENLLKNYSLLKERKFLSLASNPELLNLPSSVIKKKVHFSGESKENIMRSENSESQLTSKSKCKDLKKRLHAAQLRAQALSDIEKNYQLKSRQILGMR

The target of assay [5] is Serine/threonine-protein kinase PAK 4 (Homo sapiens) (UniProt O96013).
Sequence of Serine/threonine-protein kinase PAK 4 (Homo sapiens) (O96013 whole entry, looked up): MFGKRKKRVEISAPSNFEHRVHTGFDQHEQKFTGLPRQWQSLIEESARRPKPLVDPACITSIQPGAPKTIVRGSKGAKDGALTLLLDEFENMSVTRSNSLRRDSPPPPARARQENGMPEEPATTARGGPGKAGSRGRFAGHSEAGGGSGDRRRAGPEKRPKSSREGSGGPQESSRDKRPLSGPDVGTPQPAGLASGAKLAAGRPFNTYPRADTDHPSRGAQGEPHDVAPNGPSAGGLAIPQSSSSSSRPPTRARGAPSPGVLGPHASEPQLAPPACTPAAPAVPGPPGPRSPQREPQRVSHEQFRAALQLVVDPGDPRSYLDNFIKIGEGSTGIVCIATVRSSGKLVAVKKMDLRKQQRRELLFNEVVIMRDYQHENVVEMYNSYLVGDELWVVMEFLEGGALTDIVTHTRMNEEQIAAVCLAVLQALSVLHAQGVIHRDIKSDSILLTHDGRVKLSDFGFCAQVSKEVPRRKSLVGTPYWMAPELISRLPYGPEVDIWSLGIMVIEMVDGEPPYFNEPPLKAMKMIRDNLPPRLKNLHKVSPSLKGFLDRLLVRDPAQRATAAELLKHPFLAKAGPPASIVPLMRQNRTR
In assay [6] the target is Serine/threonine-protein kinase PAK 5 (Homo sapiens) (UniProt Q9P286).
Sequence of Serine/threonine-protein kinase PAK 5 (Homo sapiens) (Q9P286 whole entry, looked up): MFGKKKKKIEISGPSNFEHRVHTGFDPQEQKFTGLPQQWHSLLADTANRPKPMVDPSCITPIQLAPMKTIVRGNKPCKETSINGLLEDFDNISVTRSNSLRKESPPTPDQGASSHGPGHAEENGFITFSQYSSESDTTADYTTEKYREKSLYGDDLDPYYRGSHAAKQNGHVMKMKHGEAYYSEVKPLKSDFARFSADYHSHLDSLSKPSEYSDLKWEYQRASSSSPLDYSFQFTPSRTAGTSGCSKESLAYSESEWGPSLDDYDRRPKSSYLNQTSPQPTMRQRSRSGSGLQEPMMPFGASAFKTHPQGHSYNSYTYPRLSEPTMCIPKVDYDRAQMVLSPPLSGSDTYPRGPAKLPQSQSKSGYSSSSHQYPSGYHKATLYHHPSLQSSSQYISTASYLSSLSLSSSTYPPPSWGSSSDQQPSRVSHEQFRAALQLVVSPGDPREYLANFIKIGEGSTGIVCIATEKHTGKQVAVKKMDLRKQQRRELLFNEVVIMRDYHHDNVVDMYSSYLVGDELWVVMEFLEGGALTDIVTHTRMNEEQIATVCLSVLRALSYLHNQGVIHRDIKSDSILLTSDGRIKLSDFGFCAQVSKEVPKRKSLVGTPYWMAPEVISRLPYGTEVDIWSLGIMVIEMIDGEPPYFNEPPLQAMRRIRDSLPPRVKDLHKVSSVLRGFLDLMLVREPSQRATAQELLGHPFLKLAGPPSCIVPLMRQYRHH
Assay [7] addresses T2, 3-phosphoinositide-dependent protein kinase 1 (Homo sapiens) (UniProt O15530).
T2 sequence (whole entry): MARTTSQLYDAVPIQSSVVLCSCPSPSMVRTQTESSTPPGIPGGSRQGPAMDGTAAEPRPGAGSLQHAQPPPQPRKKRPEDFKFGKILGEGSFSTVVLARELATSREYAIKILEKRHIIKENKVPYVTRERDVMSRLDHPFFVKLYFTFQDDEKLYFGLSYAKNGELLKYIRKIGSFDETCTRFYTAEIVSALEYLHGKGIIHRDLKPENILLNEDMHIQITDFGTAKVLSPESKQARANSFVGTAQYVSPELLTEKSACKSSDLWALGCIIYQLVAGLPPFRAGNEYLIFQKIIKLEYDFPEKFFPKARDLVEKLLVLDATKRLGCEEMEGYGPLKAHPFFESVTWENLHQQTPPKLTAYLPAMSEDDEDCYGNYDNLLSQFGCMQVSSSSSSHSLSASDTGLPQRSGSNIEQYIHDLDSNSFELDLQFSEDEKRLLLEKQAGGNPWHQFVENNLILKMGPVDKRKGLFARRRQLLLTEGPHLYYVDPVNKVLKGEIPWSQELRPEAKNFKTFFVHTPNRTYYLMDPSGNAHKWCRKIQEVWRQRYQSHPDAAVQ

Assay [8] addresses Serine/threonine-protein kinase pim-3 (Homo sapiens) (UniProt Q86V86).
Assay [9] addresses T3, Serine/threonine-protein kinase PLK4 (Homo sapiens) (UniProt O00444).
T3 sequence (whole entry): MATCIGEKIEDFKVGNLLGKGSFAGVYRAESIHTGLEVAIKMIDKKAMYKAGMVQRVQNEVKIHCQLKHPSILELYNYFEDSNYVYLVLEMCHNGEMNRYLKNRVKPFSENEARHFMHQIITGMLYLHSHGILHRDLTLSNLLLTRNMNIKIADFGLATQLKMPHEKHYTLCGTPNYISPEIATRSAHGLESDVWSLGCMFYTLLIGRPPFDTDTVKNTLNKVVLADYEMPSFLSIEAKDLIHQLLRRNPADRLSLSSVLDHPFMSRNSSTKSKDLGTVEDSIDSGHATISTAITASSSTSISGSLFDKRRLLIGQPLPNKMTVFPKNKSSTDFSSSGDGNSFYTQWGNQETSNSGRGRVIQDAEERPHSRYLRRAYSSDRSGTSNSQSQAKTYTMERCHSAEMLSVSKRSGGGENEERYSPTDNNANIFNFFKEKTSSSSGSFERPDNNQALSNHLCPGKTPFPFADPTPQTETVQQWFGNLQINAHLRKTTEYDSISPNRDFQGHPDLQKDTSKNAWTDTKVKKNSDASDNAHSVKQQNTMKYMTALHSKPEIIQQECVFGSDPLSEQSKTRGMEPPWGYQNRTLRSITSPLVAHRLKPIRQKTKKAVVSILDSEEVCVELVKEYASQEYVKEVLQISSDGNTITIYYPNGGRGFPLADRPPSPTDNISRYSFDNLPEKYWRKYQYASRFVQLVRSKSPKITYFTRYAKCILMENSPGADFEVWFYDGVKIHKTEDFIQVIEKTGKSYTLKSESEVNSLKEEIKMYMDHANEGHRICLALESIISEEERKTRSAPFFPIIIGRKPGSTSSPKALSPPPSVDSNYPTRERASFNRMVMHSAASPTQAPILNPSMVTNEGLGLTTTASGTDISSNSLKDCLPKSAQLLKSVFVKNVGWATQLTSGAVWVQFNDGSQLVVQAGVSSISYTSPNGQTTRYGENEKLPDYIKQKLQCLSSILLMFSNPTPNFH

For assay [10], the target named is cAMP-dependent protein kinase catalytic subunit alpha (Homo sapiens) (UniProt P17612).
The target in assay [11] is STE20-like serine/threonine-protein kinase (Homo sapiens) (UniProt Q9H2G2).
Sequence of STE20-like serine/threonine-protein kinase (Homo sapiens) (Q9H2G2 whole entry, looked up): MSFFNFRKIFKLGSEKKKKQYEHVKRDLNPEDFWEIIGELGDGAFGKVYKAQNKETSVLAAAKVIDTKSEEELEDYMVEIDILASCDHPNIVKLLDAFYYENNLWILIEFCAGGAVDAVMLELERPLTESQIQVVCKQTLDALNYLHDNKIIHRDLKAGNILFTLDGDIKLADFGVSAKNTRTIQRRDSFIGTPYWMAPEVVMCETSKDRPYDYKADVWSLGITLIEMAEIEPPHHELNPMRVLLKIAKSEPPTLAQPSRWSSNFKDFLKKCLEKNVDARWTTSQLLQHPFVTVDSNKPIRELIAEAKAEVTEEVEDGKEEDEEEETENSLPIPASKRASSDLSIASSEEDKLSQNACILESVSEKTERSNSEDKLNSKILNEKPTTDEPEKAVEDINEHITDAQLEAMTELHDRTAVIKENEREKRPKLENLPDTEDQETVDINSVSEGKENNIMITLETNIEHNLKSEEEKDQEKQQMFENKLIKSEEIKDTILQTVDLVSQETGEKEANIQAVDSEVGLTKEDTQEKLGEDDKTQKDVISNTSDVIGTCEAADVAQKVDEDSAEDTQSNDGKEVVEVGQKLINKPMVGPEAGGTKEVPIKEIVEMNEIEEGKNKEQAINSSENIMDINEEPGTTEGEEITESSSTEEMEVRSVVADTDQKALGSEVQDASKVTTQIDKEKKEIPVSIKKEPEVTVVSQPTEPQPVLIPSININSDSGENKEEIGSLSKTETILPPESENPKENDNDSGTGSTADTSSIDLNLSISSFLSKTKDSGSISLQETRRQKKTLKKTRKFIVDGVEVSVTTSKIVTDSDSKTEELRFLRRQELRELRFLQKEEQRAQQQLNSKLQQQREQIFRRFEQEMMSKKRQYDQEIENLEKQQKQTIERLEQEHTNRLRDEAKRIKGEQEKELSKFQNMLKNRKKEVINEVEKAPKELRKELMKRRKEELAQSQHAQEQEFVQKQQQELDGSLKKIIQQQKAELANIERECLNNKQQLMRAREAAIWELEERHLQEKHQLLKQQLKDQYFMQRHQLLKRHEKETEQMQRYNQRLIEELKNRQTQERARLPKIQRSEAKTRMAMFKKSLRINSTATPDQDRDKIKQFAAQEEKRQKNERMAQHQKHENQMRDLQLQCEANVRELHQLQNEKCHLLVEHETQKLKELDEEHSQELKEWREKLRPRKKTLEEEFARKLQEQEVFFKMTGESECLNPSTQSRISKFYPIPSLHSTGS
Assay [12] concerns the target T4, Serine/threonine-protein kinase VRK1 (Homo sapiens) (UniProt Q99986).
T4 sequence (whole entry): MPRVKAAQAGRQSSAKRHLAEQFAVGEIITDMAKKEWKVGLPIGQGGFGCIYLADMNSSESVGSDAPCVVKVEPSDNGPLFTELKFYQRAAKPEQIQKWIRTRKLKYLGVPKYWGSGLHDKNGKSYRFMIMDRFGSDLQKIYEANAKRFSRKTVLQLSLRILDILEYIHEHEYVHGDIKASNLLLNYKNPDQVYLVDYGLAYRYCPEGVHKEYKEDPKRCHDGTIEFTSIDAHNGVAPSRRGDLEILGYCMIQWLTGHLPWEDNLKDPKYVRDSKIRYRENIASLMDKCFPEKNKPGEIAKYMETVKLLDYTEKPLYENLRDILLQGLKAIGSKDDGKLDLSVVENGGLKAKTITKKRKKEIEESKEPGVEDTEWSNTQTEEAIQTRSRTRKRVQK

Molecules are shown by their SMILES.

Sequence of Serine/threonine-protein kinase Chk2 (O96017 whole entry): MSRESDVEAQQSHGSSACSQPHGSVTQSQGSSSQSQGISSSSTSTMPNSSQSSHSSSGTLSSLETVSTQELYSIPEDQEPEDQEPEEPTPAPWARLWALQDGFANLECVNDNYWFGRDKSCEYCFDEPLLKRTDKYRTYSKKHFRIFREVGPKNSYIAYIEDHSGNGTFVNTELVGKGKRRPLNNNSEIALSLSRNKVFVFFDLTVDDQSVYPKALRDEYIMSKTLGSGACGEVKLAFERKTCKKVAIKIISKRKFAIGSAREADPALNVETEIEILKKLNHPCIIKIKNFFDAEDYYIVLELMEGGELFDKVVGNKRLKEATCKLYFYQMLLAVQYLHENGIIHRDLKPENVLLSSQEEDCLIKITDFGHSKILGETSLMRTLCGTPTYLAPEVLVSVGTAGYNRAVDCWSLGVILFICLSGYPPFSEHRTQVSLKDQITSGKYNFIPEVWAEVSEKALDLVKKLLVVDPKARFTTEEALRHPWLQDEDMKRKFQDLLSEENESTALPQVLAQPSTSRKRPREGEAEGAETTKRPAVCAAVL
Sequence of Mitogen-activated protein kinase 11 (Q15759 whole entry): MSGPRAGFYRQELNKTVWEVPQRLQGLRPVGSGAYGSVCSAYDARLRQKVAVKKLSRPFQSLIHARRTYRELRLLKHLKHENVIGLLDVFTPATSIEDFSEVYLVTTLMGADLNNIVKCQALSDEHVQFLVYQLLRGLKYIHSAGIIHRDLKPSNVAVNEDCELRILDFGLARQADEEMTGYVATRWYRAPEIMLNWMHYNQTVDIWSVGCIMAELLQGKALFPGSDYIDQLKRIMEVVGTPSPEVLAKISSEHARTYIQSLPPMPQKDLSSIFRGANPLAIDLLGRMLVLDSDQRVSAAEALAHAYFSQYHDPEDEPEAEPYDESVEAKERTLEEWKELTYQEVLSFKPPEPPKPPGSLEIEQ
Sequence of Tyrosine-protein kinase JAK1 (Homo sapiens) (P23458 whole entry): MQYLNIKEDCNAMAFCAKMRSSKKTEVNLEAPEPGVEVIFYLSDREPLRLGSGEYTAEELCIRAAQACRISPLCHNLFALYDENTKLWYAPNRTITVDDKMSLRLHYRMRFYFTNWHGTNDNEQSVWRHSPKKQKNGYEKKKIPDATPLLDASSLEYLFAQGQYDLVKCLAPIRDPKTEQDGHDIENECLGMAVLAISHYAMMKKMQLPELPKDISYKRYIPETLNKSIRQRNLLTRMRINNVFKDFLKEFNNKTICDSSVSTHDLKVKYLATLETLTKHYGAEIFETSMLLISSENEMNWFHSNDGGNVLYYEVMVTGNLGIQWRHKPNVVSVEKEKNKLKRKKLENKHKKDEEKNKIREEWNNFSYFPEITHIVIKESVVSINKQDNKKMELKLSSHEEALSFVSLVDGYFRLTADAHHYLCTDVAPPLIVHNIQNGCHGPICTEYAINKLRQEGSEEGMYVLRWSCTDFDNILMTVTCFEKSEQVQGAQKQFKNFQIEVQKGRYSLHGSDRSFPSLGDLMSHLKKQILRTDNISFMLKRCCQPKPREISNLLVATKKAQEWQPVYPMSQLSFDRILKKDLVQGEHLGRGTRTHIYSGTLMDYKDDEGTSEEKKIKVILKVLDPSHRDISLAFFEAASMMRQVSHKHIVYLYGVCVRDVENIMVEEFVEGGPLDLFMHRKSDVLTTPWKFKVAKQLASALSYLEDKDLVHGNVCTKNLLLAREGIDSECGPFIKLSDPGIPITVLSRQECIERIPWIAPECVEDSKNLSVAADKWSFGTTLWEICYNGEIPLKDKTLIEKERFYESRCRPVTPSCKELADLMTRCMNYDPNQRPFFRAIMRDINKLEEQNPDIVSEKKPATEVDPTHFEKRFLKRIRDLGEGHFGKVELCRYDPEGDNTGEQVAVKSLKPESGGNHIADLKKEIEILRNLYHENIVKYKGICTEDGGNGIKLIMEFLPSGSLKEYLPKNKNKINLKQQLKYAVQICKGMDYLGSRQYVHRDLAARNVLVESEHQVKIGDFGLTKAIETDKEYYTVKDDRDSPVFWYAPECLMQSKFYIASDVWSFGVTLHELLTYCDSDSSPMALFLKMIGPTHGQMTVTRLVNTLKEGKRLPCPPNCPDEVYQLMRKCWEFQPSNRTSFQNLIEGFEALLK

In general, ΔTm refers to the shift of the melting midpoint relative to a reference. `COc1ccc(S(=O)(=O)N(CCO)c2ccccc2CN(C)C/C=C/c2ccc(Cl)cc2)cc1`: the ΔTm in assay [1] was -0.1 °C; in [2] it was -0.5 °C; in assay [3], 0.2 °C; in [4], -0.1 °C; in [5], -0.1 °C; in [6], -0.4 °C. In addition, the ΔTm in assay [7] is 0.4 °C; in assay [8], 0.5 °C; in [9] it was 1 °C; in assay [10] it was -4.1 °C; in [11], 1.1 °C; in [12], 0 °C.

`O=S(=O)(c1cccc2c(Cl)cccc12)N1CCCNCC1`: the ΔTm in [1] was -0.1 °C; in [2] it was 0 °C; in [3], -0.3 °C; in [4], 0.9 °C; in assay [5] it was 0.8 °C; in assay [6], 0.1 °C. Moreover, the ΔTm in [7] is 0.1 °C; in assay [8], 3.5 °C; in assay [9] it was 0.4 °C; in [10] it was 1.4 °C; in assay [11], -0.1 °C; in [12] it was 0.3 °C.

With `C=CNC#N`, the ΔTm was 0.1 °C in [1]; -0.9 °C in assay [2]; -0.1 °C in assay [3]; 2.1 °C in [4]; 1.8 °C in [5]; 0.5 °C in assay [6]. The ΔTm was -0.1 °C in [7]; 1 °C in assay [8]; 0.1 °C in [9]; 1.6 °C in [10]; 0.1 °C in [11]; 1 °C in assay [12].

With `CCN(CC)CCNC(=O)c1c(C)[nH]c(/C=C2\C(=O)Nc3ccc(Cl)cc32)c1C` [SU-11652], the ΔTm in [1] was 10.3 °C; in assay [2], 9.7 °C; in [3], -0.4 °C; in [4], 5.1 °C; in assay [5], 6.4 °C; in assay [6], 4.7 °C. In addition, the ΔTm in [7] is -0.7 °C; in assay [8], 4.7 °C; in [9] it was 7.8 °C; in assay [10], 2 °C; in assay [11] it was 7.5 °C; in assay [12] it was 0.6 °C.

Regarding `O=c1c(O)c(-c2ccc(O)c(O)c2)oc2cc(O)cc(O)c12` [QUERCETIN], the shift in melting temperature (ΔTm) in [1] is 4.8 °C; in [2] it was 8.2 °C; in [3], 2.2 °C; in [4] it was 3.4 °C; in [5] it was 2.3 °C; in assay [6], 0.5 °C. Also, the ΔTm in assay [7] was 1.1 °C; in [8], 8.8 °C; in assay [9] it was 7.4 °C; in assay [10] it was 4.2 °C; in assay [11] it was 5.7 °C; in assay [12], 1.4 °C.

For the compound `CCN1/C(=C/C(C)=O)Sc2ccc(OC)cc21`, the ΔTm is 0.1 °C in [1]; -0.4 °C in assay [2]; -0.1 °C in [3]; 0.8 °C in [4]; 0.9 °C in [5]; 0 °C in [6]. Besides, the ΔTm in assay [7] is 0.2 °C; in [8] it was 0.2 °C; in [9], -0.2 °C; in assay [10], -0.5 °C; in [11] it was 0.7 °C; in [12], 0.3 °C.

For the compound `Oc1cc(O)cc(/C=C/c2ccc(O)c(O)c2)c1` [PICEATANNOL], the ΔTm in assay [1] is 1.9 °C; in assay [2] it was 2 °C; in [3], 0.8 °C; in [4], 1.1 °C; in [5], 1.5 °C; in assay [6], -0.9 °C. In addition, the ΔTm is -0.4 °C in [7]; 3.5 °C in assay [8]; 1.1 °C in assay [9]; 2.7 °C in [10]; 1.6 °C in assay [11]; 0.2 °C in assay [12].
